The test system of this experiment is HCV pseudotype (HIV core proteins, HCV E1 and E2 of strain H77). The conditions noted are these: for Percent inhibition: 25 μM.
Where [1] appears, read: HCV H77 1a E2 peptides at ~25 μM, Table 7, virus alone 448,123.
The mark [2] stands for this setting: HCV J4 1b E2 peptides at ~25 μM, Table 8, controls as in Table 7.

Where two headings read alike, the source gives them in different places. Peptide text beside a SMILES is read from it.

For `CC[C@H](C)[C@H](NC(=O)CNC(=O)[C@H](CS)NC(=O)[C@@H]1CCCN1C(=O)[C@H](CCCNC(=N)N)NC(=O)[C@@H]1CCCN1C(=O)[C@@H]1CCCN1C(=O)[C@H](Cc1ccc(O)cc1)NC(=O)[C@H](Cc1c[nH]cn1)NC(=O)[C@H](Cc1c[nH]c2ccccc12)NC(=O)[C@H](CS)NC(=O)[C@H](Cc1ccc(O)cc1)NC(=O)[C@@H]1CCCN1)C(=O)N[C@H](C(=O)N1CCC[C@H]1C(=O)N[C@@H](C)C(=O)N[C@@H](CCCCN)C(=O)N[C@@H](CO)C(=O)O)C(C)C` [compound 15, PYCWHYPPRPCGIVPAKS] (H-PYCWHYPPRPCGIVPAKS-OH; N-terminus and C-terminus assumed), the Percent inhibition worked out at 43.5%. Moreover, under setting [1], the Luciferase units was 253,410 luciferase units (lumens).
In the case of `CC[C@H](C)[C@H](NC(=O)CNC(=O)[C@H](CS)NC(=O)[C@@H]1CCCN1C(=O)[C@H](CCCNC(=N)N)NC(=O)[C@@H]1CCCN1)C(=O)N[C@H](C(=O)N1CCC[C@H]1C(=O)N[C@@H](C)C(=O)N[C@@H](CCCCN)C(=O)N[C@@H](CO)C(=O)N[C@H](C(=O)N[C@@H](CS)C(=O)NCC(=O)N1CCC[C@H]1C(=O)N[C@H](C(=O)N[C@@H](Cc1ccc(O)cc1)C(=O)N[C@@H](CS)C(=O)O)C(C)C)C(C)C)C(C)C` [compound 16, PRPCGIVPAKSVCGPVYC] (H-PRPCGIVPAKSVCGPVYC-OH; N-terminus and C-terminus assumed), the Percent inhibition was 10.0%. Moreover, the Luciferase units under setting [1] is 403,430 luciferase units (lumens).
For the molecule `CC(C)[C@H](NC(=O)[C@@H](NC(=O)[C@@H]1CCCN1C(=O)[C@H](CO)NC(=O)[C@@H]1CCCN1C(=O)[C@@H](NC(=O)[C@H](Cc1ccccc1)NC(=O)[C@H](CS)NC(=O)[C@H](Cc1ccc(O)cc1)NC(=O)[C@@H](NC(=O)[C@@H]1CCCN1C(=O)CNC(=O)[C@H](CS)NC(=O)[C@@H](NC(=O)[C@H](CO)NC(=O)[C@H](CCCCN)NC(=O)[C@H](C)NC(=O)[C@@H]1CCCN1)C(C)C)C(C)C)[C@@H](C)O)C(C)C)C(=O)O` [compound 17, PAKSVCGPVYCFTPSPVV] (H-PAKSVCGPVYCFTPSPVV-OH; N-terminus and C-terminus assumed), the Percent inhibition turned out to be 43.2%. Under setting [1], the Luciferase units is on record as 254,516 luciferase units (lumens).
The corresponding values for `CC[C@H](C)[C@H](NC(=O)[C@@H](NC(=O)[C@H](CS)NC(=O)[C@@H]1CCCN1)C(C)C)C(=O)NCC(=O)NCC(=O)N[C@H](C(=O)NCC(=O)N[C@@H](CC(N)=O)C(=O)N[C@@H](CC(N)=O)C(=O)N[C@H](C(=O)N[C@@H](CC(C)C)C(=O)N[C@@H](CC(C)C)C(=O)N[C@@H](CS)C(=O)N1CCC[C@H]1C(=O)N[C@H](C(=O)N[C@@H](CC(=O)O)C(=O)N[C@@H](CS)C(=O)O)[C@@H](C)O)[C@@H](C)O)C(C)C` [compound 26, PCVIGGVGNNTLLCPTDC] (H-PCVIGGVGNNTLLCPTDC-OH; N-terminus and C-terminus assumed) are 51.6% and 216,706 luciferase units (lumens).
On the same counts, the results for `CC[C@H](C)[C@H](NC(=O)[C@@H](NC(=O)[C@H](CC(C)C)NC(=O)[C@H](CC(N)=O)NC(=O)[C@H](CCC(=O)O)NC(=O)[C@H](CC(C)C)NC(=O)[C@H](C)NC(=O)[C@H](C)NC(=O)[C@H](CCC(=O)O)NC(=O)[C@H](C)NC(=O)[C@H](CCC(N)=O)NC(=O)[C@H](CO)NC(=O)[C@@H](NC(=O)[C@H](CC(C)C)NC(=O)[C@H](CC(C)C)NC(=O)[C@H](CCSC)NC(=O)[C@H](CCSC)NC(=O)[C@@H](N)Cc1c[nH]c2ccccc12)[C@@H](C)CC)C(C)C)C(=O)O` [compound 50, WMMLLISQAEAALENLVI] are 87.9% and 58,790 luciferase units (lumens).
Turning to `CC[C@H](C)[C@H](NC(=O)[C@H](Cc1c[nH]cn1)NC(=O)[C@H](Cc1c[nH]c2ccccc12)NC(=O)[C@H](CO)NC(=O)CNC(=O)[C@H](CC(N)=O)NC(=O)[C@@H](NC(=O)[C@H](CC(N)=O)NC(=O)[C@@H](NC(=O)[C@H](CC(C)C)NC(=O)[C@H](CCC(N)=O)NC(=O)[C@@H](NC(=O)[C@H](CCCCN)NC(=O)[C@H](CCC(N)=O)NC(=O)[C@H](CO)NC(=O)[C@H](C)N)[C@@H](C)CC)C(C)C)[C@@H](C)O)C(=O)N[C@@H](CC(N)=O)C(=O)N[C@@H](CCCNC(=N)N)C(=O)O` [compound 83, ASQKIQLVNTNGSWHINR], the Percent inhibition is recorded as −15.8%. Under setting [2], the Luciferase units is 518,993 luciferase units (lumens).
In the case of `CC[C@H](C)[C@H](NC(=O)[C@@H](N)Cc1c[nH]cn1)C(=O)N[C@@H](CC(N)=O)C(=O)N[C@@H](CCCNC(=N)N)C(=O)N[C@H](C(=O)N[C@@H](C)C(=O)N[C@@H](CC(C)C)C(=O)N[C@@H](CC(N)=O)C(=O)N[C@@H](CS)C(=O)N[C@@H](CC(N)=O)C(=O)N[C@@H](CC(=O)O)C(=O)N[C@@H](CO)C(=O)N[C@@H](CC(C)C)C(=O)N[C@@H](CCC(N)=O)C(=O)N[C@H](C(=O)NCC(=O)N[C@@H](Cc1ccccc1)C(=O)N[C@@H](Cc1ccccc1)C(=O)O)[C@@H](C)O)[C@@H](C)O` [compound 84, HINRTALNCNDSLQTGFF], the Percent inhibition is on record as 12.5%. Moreover, the Luciferase units under setting [2] is listed as 392,023 luciferase units (lumens).
For `CC(C)C[C@H](NC(=O)[C@H](C)NC(=O)[C@H](C)NC(=O)[C@H](Cc1ccccc1)NC(=O)[C@H](Cc1ccccc1)NC(=O)CNC(=O)[C@@H](NC(=O)[C@H](CCC(N)=O)NC(=O)[C@H](CC(C)C)NC(=O)[C@H](CO)NC(=O)[C@H](CC(=O)O)NC(=O)[C@H](CC(N)=O)NC(=O)[C@H](CS)NC(=O)[C@@H](N)CC(N)=O)[C@@H](C)O)C(=O)N[C@@H](Cc1ccccc1)C(=O)N[C@@H](Cc1ccc(O)cc1)C(=O)N[C@@H](C)C(=O)N[C@@H](Cc1c[nH]cn1)C(=O)O` [compound 85, NCNDSLQTGFFAALFYAH], the Percent inhibition was 74.9%. Besides, the Luciferase units under setting [2] is 112,260 luciferase units (lumens).
Take `CC(C)[C@H](NC(=O)CNC(=O)[C@H](CS)NC(=O)[C@@H]1CCCN1C(=O)[C@H](CCCNC(=N)N)NC(=O)[C@@H]1CCCN1)C(=O)N[C@H](C(=O)N1CCC[C@H]1C(=O)N[C@@H](C)C(=O)N[C@@H](CO)C(=O)N[C@@H](CCC(N)=O)C(=O)N[C@H](C(=O)N[C@@H](CS)C(=O)NCC(=O)N1CCC[C@H]1C(=O)N[C@H](C(=O)N[C@@H](Cc1ccc(O)cc1)C(=O)N[C@@H](CS)C(=O)O)C(C)C)C(C)C)C(C)C` [compound 92, PRPCGVVPASQVCGPVYC] (H-PRPCGVVPASQVCGPVYC-OH; N-terminus and C-terminus assumed): the Percent inhibition is 16.9%. The Luciferase units under setting [2] is listed as 372,400 luciferase units (lumens).
The corresponding values for `CSCC[C@H](NC(=O)[C@@H](NC(=O)[C@H](CC(=O)O)NC(=O)[C@@H](NC(=O)[C@@H](N)CCC(=O)O)[C@@H](C)O)C(C)C)C(=O)N[C@@H](CC(C)C)C(=O)N[C@@H](CC(C)C)C(=O)N[C@@H](CC(N)=O)C(=O)N[C@@H](CC(N)=O)C(=O)N[C@H](C(=O)N[C@@H](CCCNC(=N)N)C(=O)N1CCC[C@H]1C(=O)N1CCC[C@H]1C(=O)N[C@@H](CCC(N)=O)C(=O)NCC(=O)N[C@@H](CC(N)=O)C(=O)N[C@@H](Cc1c[nH]c2ccccc12)C(=O)N[C@@H](Cc1ccccc1)C(=O)O)[C@@H](C)O` [compound 98, ETDVMLLNNTRPPQGNWF] are −4.4% and 467,636 luciferase units (lumens).
Turning to `CSCC[C@H](NC(=O)[C@H](Cc1c[nH]c2ccccc12)NC(=O)[C@@H](NC(=O)[C@H](CS)NC(=O)CNC(=O)[C@H](Cc1ccccc1)NC(=O)[C@H](Cc1c[nH]c2ccccc12)NC(=O)[C@H](CC(N)=O)NC(=O)CNC(=O)[C@H](CCC(N)=O)NC(=O)[C@@H]1CCCN1C(=O)[C@@H]1CCCN1C(=O)[C@H](CCCNC(=N)N)NC(=O)[C@@H](NC(=O)[C@H](CC(N)=O)NC(=O)[C@@H](N)CC(N)=O)[C@@H](C)O)[C@@H](C)O)C(=O)N[C@@H](CC(N)=O)C(=O)N[C@@H](CO)C(=O)O` [compound 99, NNTRPPQGNWFGCTWMNS], the Percent inhibition amounted to 75.2%. Besides, the Luciferase units under setting [2] is given as 111,043 luciferase units (lumens).
In the case of `CC[C@H](C)[C@H](NC(=O)[C@H](CC(N)=O)NC(=O)[C@H](CS)NC(=O)[C@@H]1CCCN1)C(=O)NCC(=O)NCC(=O)N[C@H](C(=O)NCC(=O)N[C@@H](CC(N)=O)C(=O)N[C@@H](CCCNC(=N)N)C(=O)N[C@H](C(=O)N[C@@H](CC(C)C)C(=O)N[C@H](C(=O)N[C@@H](CS)C(=O)N1CCC[C@H]1C(=O)N[C@H](C(=O)N[C@@H](CC(=O)O)C(=O)N[C@@H](CS)C(=O)O)[C@@H](C)O)[C@@H](C)CC)[C@@H](C)O)C(C)C` [compound 102, PCNIGGVGNRTLICPTDC] (H-PCNIGGVGNRTLICPTDC-OH; N-terminus and C-terminus assumed), the Percent inhibition is given as 15.8%. In addition, the Luciferase units under setting [2] is given as 377,216 luciferase units (lumens).
On the same counts, the results for `CSCC[C@H](N)C(=O)N[C@@H](Cc1ccc(O)cc1)C(=O)N[C@H](C(=O)NCC(=O)NCC(=O)N[C@H](C(=O)N[C@@H](CCC(=O)O)C(=O)N[C@@H](Cc1c[nH]cn1)C(=O)N[C@@H](CCCNC(=N)N)C(=O)N[C@@H](CC(C)C)C(=O)N[C@@H](CC(N)=O)C(=O)N[C@@H](C)C(=O)N[C@@H](C)C(=O)N[C@@H](CS)C(=O)N[C@@H](CC(N)=O)C(=O)N[C@@H](Cc1c[nH]c2ccccc12)C(=O)N[C@H](C(=O)N[C@@H](CCCNC(=N)N)C(=O)O)[C@@H](C)O)C(C)C)C(C)C` [compound 110, MYVGGVEHRLNAACNWTR] are −34.5% and 602,506 luciferase units (lumens).
The corresponding values for `CC(C)C[C@H](NC(=O)[C@H](CCC(=O)O)NC(=O)[C@H](CO)NC(=O)[C@H](CCCNC(=N)N)NC(=O)[C@H](CC(=O)O)NC(=O)[C@H](CCCNC(=N)N)NC(=O)[C@H](CC(=O)O)NC(=O)[C@H](CCC(=O)O)NC(=O)[C@H](CC(C)C)NC(=O)[C@H](CC(N)=O)NC(=O)[C@H](CS)NC(=O)[C@H](CCCNC(=N)N)NC(=O)[C@H](CCC(=O)O)NC(=O)CNC(=O)[C@H](CCCNC(=N)N)NC(=O)[C@@H](NC(=O)[C@H](Cc1c[nH]c2ccccc12)NC(=O)[C@@H](N)CC(N)=O)[C@@H](C)O)C(=O)O` [compound 112, NWTRGERCNLEDRDRSEL] are −17.8% and 527,950 luciferase units (lumens).

The record behind these values is patent publication US7381705B2, “Inhibitors of hepatitis C virus” (The Administrators Of The Tulane Educational Fund, priority 2004, dated 2008).
